Reference: patent US12006328B2, “Thieno[2,3-d]pyrimidin-4-one derivatives as NMDAR modulators and uses related thereto” (Emory University, priority 2014, dated 2024)

How the values were obtained:
Assay type in all cases: cell-based
[1] = molecular target: GluN2D-containing NMDA receptors (Homo sapiens, UniProt O15399); assay: Two-electrode voltage-clamp recordings from Xenopus laevis oocytes, GluN2D; settings: for EC50: read-out: EC50 Glu N2D; for maximal potentiation Glu N2D / I10 μM/ICONTROL (mean ± SEM, %) Glu N2D: percent of response without compound; for I10 μM/ICONTROL (mean ± SEM, %) Glu N2D: 10 μM test compound with glutamate 100 μM and glycine 30 μM, Tables 1-5
Protocol: (§1) Xenopus laevis oocytes were injected with cRNA encoding the NMDA receptor subunits. Two to seven days after injection, two-electrode voltage-clamp recordings were performed. Extracellular solutions were made from a solutions containing (in mM) 90 NaCl, 3 KCl, 10 HEPES, 0.5 BaCl2, 0.01 EDTA (pH 7.4 with NaOH). Voltage and current electrodes were filled with 0.3 M and 3.0 M KCl, respectively.
(§2) Potency was determined by adding increasing concentrations of test compound to saturating concentrations of glutamate (100 μM) and glycine (30 μM), and the response amplitude measured. The response in the presence of each concentration of test compound plus agonists was expressed as a percent of the response in the absence of test compound.

[2] = molecular target: GluN2B-containing NMDA receptors (Homo sapiens, UniProt Q13224); assay: Two-electrode voltage-clamp recordings from Xenopus laevis oocytes, GluN2B; settings: for EC50: read-out: EC50 Glu N2B; for maximal potentiation Glu N2B / I10 μM/ICONTROL (mean ± SEM, %) Glu N2B: percent of response without compound; for I10 μM/ICONTROL (mean ± SEM, %) Glu N2B: 10 μM test compound with glutamate 100 μM and glycine 30 μM, Tables 1-5
Protocol: as §1, §2

[3] = molecular target: GluN2C-containing NMDA receptors (Homo sapiens, UniProt Q14957); assay: Two-electrode voltage-clamp recordings from Xenopus laevis oocytes, GluN2C; settings: for EC50: read-out: EC50 Glu N2C; for maximal potentiation Glu N2C / I10 μM/ICONTROL (mean ± SEM, %) Glu N2C: percent of response without compound; for I10 μM/ICONTROL (mean ± SEM, %) Glu N2C: 10 μM test compound with glutamate 100 μM and glycine 30 μM, Tables 1-5
Protocol: as §1, §2

[4] = Table 1, glutamate 100 μM, glycine 30 μM, Hill fit
[5] = Table 1, in brackets after EC50
[6] = Table 2, in brackets below IC50

Sequence of GluN2B-containing NMDA receptors (Q13224 27-1484, other chains not shown): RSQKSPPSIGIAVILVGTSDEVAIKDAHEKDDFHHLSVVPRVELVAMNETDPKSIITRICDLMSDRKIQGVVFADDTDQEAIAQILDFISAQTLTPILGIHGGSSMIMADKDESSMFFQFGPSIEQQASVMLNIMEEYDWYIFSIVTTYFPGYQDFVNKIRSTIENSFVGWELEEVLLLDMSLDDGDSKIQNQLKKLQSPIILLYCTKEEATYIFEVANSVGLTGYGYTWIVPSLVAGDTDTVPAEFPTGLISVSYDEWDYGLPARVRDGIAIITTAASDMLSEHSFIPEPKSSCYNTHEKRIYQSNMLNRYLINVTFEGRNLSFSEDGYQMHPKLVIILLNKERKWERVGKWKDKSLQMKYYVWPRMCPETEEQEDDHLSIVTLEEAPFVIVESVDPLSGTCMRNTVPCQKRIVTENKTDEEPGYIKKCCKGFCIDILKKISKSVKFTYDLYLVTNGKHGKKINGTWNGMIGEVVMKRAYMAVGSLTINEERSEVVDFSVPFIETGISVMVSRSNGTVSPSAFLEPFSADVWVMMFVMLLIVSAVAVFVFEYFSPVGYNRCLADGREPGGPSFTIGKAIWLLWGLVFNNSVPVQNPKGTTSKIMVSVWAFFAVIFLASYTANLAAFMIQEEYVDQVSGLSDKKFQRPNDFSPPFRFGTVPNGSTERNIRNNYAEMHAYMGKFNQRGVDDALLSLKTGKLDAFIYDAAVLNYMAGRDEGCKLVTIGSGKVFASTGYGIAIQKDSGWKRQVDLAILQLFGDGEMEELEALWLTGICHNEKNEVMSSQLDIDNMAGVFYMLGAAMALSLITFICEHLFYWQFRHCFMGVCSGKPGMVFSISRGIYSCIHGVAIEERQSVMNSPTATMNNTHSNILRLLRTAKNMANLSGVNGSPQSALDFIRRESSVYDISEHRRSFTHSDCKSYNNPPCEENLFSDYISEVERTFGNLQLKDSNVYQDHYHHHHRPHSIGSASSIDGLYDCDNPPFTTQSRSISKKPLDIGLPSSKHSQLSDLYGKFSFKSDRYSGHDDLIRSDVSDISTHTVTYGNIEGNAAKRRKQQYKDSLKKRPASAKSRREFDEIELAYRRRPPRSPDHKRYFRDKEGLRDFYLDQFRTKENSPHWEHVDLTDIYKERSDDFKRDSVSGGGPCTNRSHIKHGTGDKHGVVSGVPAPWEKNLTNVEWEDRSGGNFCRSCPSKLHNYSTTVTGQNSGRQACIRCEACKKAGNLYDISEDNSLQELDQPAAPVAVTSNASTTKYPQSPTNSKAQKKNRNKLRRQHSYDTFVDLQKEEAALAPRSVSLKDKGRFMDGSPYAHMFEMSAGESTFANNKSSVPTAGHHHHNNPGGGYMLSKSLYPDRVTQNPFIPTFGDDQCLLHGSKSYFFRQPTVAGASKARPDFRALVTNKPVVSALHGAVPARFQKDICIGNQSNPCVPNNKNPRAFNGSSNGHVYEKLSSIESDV
Sequence of GluN2D-containing NMDA receptors (O15399 28-1336, other chains not shown): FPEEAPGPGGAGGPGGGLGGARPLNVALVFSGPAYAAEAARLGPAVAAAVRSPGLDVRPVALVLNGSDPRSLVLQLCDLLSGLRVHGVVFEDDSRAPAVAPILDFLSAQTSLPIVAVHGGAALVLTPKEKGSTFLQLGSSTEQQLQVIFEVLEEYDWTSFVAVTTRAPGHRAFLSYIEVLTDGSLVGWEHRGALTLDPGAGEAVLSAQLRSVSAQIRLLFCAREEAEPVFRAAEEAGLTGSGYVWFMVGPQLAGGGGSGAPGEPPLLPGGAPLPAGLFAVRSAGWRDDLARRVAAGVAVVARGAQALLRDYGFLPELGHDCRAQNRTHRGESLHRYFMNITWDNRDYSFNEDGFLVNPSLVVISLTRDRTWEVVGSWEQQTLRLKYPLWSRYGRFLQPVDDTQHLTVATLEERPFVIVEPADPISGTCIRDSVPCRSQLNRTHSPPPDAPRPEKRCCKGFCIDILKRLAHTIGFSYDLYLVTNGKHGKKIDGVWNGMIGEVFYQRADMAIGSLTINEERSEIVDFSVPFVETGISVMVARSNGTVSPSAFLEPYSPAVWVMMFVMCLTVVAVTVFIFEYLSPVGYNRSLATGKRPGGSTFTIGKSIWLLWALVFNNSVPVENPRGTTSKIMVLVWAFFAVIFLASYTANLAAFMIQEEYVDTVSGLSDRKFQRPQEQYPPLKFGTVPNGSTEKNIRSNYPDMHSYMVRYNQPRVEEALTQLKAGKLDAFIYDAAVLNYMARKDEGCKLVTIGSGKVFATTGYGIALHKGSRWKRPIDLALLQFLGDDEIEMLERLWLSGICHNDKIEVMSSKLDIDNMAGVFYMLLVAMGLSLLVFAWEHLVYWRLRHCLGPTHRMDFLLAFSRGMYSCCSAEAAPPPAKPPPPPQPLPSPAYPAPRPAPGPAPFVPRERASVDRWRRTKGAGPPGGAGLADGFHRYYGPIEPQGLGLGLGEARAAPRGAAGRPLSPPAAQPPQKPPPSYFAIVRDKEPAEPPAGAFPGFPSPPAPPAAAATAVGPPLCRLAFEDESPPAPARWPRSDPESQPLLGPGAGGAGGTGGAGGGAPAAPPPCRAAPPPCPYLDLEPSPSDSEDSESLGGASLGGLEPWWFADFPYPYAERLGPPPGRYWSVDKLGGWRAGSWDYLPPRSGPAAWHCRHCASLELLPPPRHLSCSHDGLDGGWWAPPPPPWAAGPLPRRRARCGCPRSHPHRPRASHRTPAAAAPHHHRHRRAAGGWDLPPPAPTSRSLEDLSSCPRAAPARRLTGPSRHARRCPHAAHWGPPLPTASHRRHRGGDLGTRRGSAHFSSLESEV
Sequence of GluN2C-containing NMDA receptors (Q14957 20-1233, other chains not shown): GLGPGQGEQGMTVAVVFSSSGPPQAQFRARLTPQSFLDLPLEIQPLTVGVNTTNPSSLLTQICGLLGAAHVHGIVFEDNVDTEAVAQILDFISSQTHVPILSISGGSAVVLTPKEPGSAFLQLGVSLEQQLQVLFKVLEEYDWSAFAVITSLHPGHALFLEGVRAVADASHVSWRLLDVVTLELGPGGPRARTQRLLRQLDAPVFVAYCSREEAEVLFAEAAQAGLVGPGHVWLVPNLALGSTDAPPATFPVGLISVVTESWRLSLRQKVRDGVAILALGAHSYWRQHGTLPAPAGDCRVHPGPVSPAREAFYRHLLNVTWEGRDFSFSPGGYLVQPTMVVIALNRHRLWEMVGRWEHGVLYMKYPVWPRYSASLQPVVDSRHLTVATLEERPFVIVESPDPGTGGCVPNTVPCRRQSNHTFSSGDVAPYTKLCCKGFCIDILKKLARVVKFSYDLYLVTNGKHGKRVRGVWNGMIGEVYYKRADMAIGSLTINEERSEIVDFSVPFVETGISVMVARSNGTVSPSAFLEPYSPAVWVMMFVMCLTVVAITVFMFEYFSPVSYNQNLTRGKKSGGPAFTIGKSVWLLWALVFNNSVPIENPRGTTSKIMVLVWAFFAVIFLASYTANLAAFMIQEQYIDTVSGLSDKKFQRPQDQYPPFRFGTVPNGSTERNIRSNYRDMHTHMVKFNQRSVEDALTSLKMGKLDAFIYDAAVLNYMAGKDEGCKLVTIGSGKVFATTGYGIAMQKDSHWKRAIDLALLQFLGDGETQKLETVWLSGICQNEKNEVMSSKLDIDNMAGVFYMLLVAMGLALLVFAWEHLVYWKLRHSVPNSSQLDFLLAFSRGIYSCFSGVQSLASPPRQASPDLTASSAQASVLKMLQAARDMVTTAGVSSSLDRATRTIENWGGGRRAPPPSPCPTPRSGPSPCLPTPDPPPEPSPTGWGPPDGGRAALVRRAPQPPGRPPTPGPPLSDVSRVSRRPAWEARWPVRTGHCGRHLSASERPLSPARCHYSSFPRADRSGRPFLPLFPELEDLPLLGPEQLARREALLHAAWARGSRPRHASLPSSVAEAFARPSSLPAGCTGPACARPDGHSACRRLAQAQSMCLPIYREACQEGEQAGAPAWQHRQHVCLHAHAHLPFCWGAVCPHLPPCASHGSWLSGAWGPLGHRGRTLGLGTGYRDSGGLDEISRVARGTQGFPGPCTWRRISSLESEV

Cc1sc2ncn(CC(=O)N3CCCC3)c(=O)c2c1-c1ccc(Cl)cc1 [4-Cl—Ph / Me]
EC50 [1, 4]: 23 µM
maximal potentiation Glu N2D [1, 5]: 381%
EC50 [2, 4]: 11 µM
maximal potentiation Glu N2B [2, 5]: 223%
EC50 [3, 4]: 15 µM
maximal potentiation Glu N2C [3, 5]: 347%

O=C(Cn1cnc2scc(-c3ccc(Cl)cc3)c2c1=O)N1CCCC1 [4-Cl—Ph / H]
EC50 [1, 4]: 72 µM
maximal potentiation Glu N2D [1, 5]: 512%
EC50 [2, 4]: 46 µM
maximal potentiation Glu N2B [2, 5]: 314%
EC50 [3, 4]: 76 µM
maximal potentiation Glu N2C [3, 5]: 770%

Cc1sc2ncn(CC(=O)N3CCCC3)c(=O)c2c1-c1ccccc1 [Ph / Me]
I10 μM/ICONTROL (mean ± SEM, %) Glu N2D [1]: 148 ± 9.1%
EC50 [1, 4]: 12 µM
maximal potentiation Glu N2D [1, 5]: 262%
I10 μM/ICONTROL (mean ± SEM, %) Glu N2B [2]: 115 ± 5.4%
EC50 [2, 4]: 15 µM
maximal potentiation Glu N2B [2, 5]: 153%
I10 μM/ICONTROL (mean ± SEM, %) Glu N2C [3]: 120 ± 3.7%
EC50 [3, 4]: 14 µM
maximal potentiation Glu N2C [3, 5]: 168%

[N-]=[N+]=Nc1ccc(-c2csc3ncn(CC(=O)N4CCCC4)c(=O)c23)cc1 [4-N3—Ph / H]
I10 μM/ICONTROL (mean ± SEM, %) Glu N2D [1]: 147 ± 6.3%
EC50 [1, 4]: 134 µM
maximal potentiation Glu N2D [1, 5]: 730%
I10 μM/ICONTROL (mean ± SEM, %) Glu N2B [2]: 134 ± 6.7%
EC50 [2, 4]: 88 µM
maximal potentiation Glu N2B [2, 5]: 353%
I10 μM/ICONTROL (mean ± SEM, %) Glu N2C [3]: 166 ± 7.2%
EC50 [3, 4]: 102 µM
maximal potentiation Glu N2C [3, 5]: 918%

O=C(Cn1cnc2sc3c(c2c1=O)CCCC3)c1ccc([N+](=O)[O-])cc1 [Compound 4-NO2]
I10 μM/ICONTROL (mean ± SEM, %) Glu N2D [1]: 97 ± 1.1%
I10 μM/ICONTROL (mean ± SEM, %) Glu N2B [2]: 94 ± 1.3%
I10 μM/ICONTROL (mean ± SEM, %) Glu N2C [3]: 93 ± 2.0%

Cc1sc2ncn(CC(=O)N3CCCC3)c(=O)c2c1-c1cccc(C#N)c1 [3-CN—Ph / Me]
I10 μM/ICONTROL (mean ± SEM, %) Glu N2D [1]: 177 ± 6.2%
I10 μM/ICONTROL (mean ± SEM, %) Glu N2B [2]: 147 ± 4.1%
I10 μM/ICONTROL (mean ± SEM, %) Glu N2C [3]: 190 ± 4.2%

Cc1sc2ncn(CC(=O)N3CCCC3)c(=O)c2c1-c1ccc2c(c1)CCC2 [3,4-(CH2)3—Ph / Me]
I10 μM/ICONTROL (mean ± SEM, %) Glu N2D [1]: 165 ± 3.4%
EC50 [1, 4]: 48 µM
maximal potentiation Glu N2D [1, 5]: 580%
I10 μM/ICONTROL (mean ± SEM, %) Glu N2B [2]: 176 ± 6.2%
EC50 [2, 4]: 11.5 µM
maximal potentiation Glu N2B [2, 5]: 275%
I10 μM/ICONTROL (mean ± SEM, %) Glu N2C [3]: 185 ± 11.4%
EC50 [3, 4]: 26 µM
maximal potentiation Glu N2C [3, 5]: 475%

Cc1sc2ncn(CC(=O)N(C)C)c(=O)c2c1-c1ccc(Br)cc1 [1 / 4-Br—Ph / Me / —N(Me)2]
I10 μM/ICONTROL (mean ± SEM, %) Glu N2D [1]: 105 ± 1.8%
I10 μM/ICONTROL (mean ± SEM, %) Glu N2B [2]: 92 ± 1.7%
I10 μM/ICONTROL (mean ± SEM, %) Glu N2C [3]: 109 ± 3.1%

Cc1sc2ncn(CC(=O)N3CCCC3)c(=O)c2c1-c1cc(C(F)(F)F)cc(C(F)(F)F)c1 [3,5-CF3—Ph / Me]
I10 μM/ICONTROL (mean ± SEM, %) Glu N2D [1]: 103 ± 1.1%
I10 μM/ICONTROL (mean ± SEM, %) Glu N2B [2]: 101 ± 4.5%
I10 μM/ICONTROL (mean ± SEM, %) Glu N2C [3]: 115 ± 5.5%

Cc1ccc(-c2csc3ncn(CC(=O)N4CCCC4)c(=O)c23)cc1 [4-Me—Ph / H]
EC50 [1, 4]: 170 µM
maximal potentiation Glu N2D [1, 5]: 560%
EC50 [2, 4]: 109 µM
maximal potentiation Glu N2B [2, 5]: 226%
EC50 [3, 4]: 207 µM
maximal potentiation Glu N2C [3, 5]: 597%

O=C(Cn1cnc2sc3c(c2c1=O)CCCC3)c1ccc(Cl)cc1Cl [2,4-Cl]
I10 μM/ICONTROL (mean ± SEM, %) Glu N2D [1]: 97 ± 1.8%
I10 μM/ICONTROL (mean ± SEM, %) Glu N2B [2]: 91 ± 3.6%
I10 μM/ICONTROL (mean ± SEM, %) Glu N2C [3]: 106 ± 4.4%

CCOC(=O)Cn1cnc2sc(C)c(-c3cccc(Cl)c3)c2c1=O [1 / 3-Cl—Ph / Me / OEt]
I10 μM/ICONTROL (mean ± SEM, %) Glu N2D [1]: 136 ± 3.0%
IC50 ([1]; Table 2, glutamate 100 μM, glycine 30 μM, Hill fit, read-out: IC50 Glu N2D): 16 µM
maximal potentiation Glu N2D [1, 6]: (245) %
I10 μM/ICONTROL (mean ± SEM, %) Glu N2B [2]: 127 ± 4.6%
IC50 ([2]; Table 2, glutamate 100 μM, glycine 30 μM, Hill fit, read-out: IC50 Glu N2B): 17 µM
maximal potentiation Glu N2B [2, 6]: (148) %
I10 μM/ICONTROL (mean ± SEM, %) Glu N2C [3]: 141 ± 7.0%
IC50 ([3]; Table 2, glutamate 100 μM, glycine 30 μM, Hill fit, read-out: IC50 Glu N2C): 26 µM
maximal potentiation Glu N2C [3, 6]: (390) %

Cc1sc2ncn(CC(=O)N3CCCC3)c(=O)c2c1-c1ccc(O)cc1 [4-OH—Ph / Me]
I10 μM/ICONTROL (mean ± SEM, %) Glu N2D [1]: 99 ± 2.5%
I10 μM/ICONTROL (mean ± SEM, %) Glu N2B [2]: 82 ± 1.0%
I10 μM/ICONTROL (mean ± SEM, %) Glu N2C [3]: 98 ± 2.3%

CCOc1ccc(-c2c(C)sc3ncn(CC(=O)N4CCCC4)c(=O)c23)cc1 [4-OEt—Ph / Me]
EC50 [1, 4]: 18 µM
maximal potentiation Glu N2D [1, 5]: 232%
EC50 [2, 4]: 15 µM
maximal potentiation Glu N2B [2, 5]: 147%
EC50 [3, 4]: 18 µM
maximal potentiation Glu N2C [3, 5]: 186%

Cc1sc2ncn(CC(=O)N3CCCC3)c(=O)c2c1-c1cccc(Cl)c1 [3-Cl—Ph / Me]
I10 μM/ICONTROL (mean ± SEM, %) Glu N2D [1]: 190 ± 6.3%
EC50 [1, 4]: 37 µM
maximal potentiation Glu N2D [1, 5]: 830%
I10 μM/ICONTROL (mean ± SEM, %) Glu N2B [2]: 170 ± 4.7%
EC50 [2, 4]: 16 µM
maximal potentiation Glu N2B [2, 5]: 301%
I10 μM/ICONTROL (mean ± SEM, %) Glu N2C [3]: 211 ± 14.7%
EC50 [3, 4]: 36 µM
maximal potentiation Glu N2C [3, 5]: 877%

Cc1sc2ncn(CC(=O)N3CCCC3)c(=O)c2c1-c1ccc(Br)c(Br)c1 [3,4-Br—Ph / Me]
I10 μM/ICONTROL (mean ± SEM, %) Glu N2D [1]: 292 ± 13.7%
EC50 [1, 4]: 30 µM
maximal potentiation Glu N2D [1, 5]: 1205%
I10 μM/ICONTROL (mean ± SEM, %) Glu N2B [2]: 188 ± 9.3%
EC50 [2, 4]: 5.2 µM
maximal potentiation Glu N2B [2, 5]: 223%
I10 μM/ICONTROL (mean ± SEM, %) Glu N2C [3]: 281 ± 17.7%
EC50 [3, 4]: 13 µM
maximal potentiation Glu N2C [3, 5]: 561%

Cc1sc2ncn(Cc3cnnn3CCC3OCCCO3)c(=O)c2c1-c1cccc(Cl)c1
I10 μM/ICONTROL (mean ± SEM, %) Glu N2D [1]: 91 ± 1.3%
I10 μM/ICONTROL (mean ± SEM, %) Glu N2B [2]: 89 ± 2.5%
I10 μM/ICONTROL (mean ± SEM, %) Glu N2C [3]: 92 ± 0.8%

COc1cccc(C(=O)Cn2cnc3sc(C)c(-c4cccc(I)c4)c3c2=O)c1 [1 / 3-I—Ph / Me / 3-OMe—Ph]
I10 μM/ICONTROL (mean ± SEM, %) Glu N2D [1]: 99 ± 4.3%
I10 μM/ICONTROL (mean ± SEM, %) Glu N2B [2]: 107 ± 3.0%
I10 μM/ICONTROL (mean ± SEM, %) Glu N2C [3]: 107 ± 4.9%

Cc1sc2ncn(Cc3cn(CCC4OCCCO4)nn3)c(=O)c2c1-c1cccc(Cl)c1
I10 μM/ICONTROL (mean ± SEM, %) Glu N2D [1]: 88 ± 3.4%
I10 μM/ICONTROL (mean ± SEM, %) Glu N2B [2]: 89 ± 2.5%
I10 μM/ICONTROL (mean ± SEM, %) Glu N2C [3]: 88 ± 0.5%
